This passage reports IC50 results from patent US10526319B2, “Halogenated quinazolin-THF-amines as PDE1 inhibitors” (H. Lundbeck A/S, priority 2014, dated 2020).

Common to all, as to type: biochemical
Conditions in all cases: 15 nM tritium labelled cAMP, 1 h at room temperature

One assay deals with PDE1C (Homo sapiens, UniProt Q14123). The assay is described as follows: PDE1 inhibition assay (SPA, tritium labelled cAMP), PDE1C. How it is done: (§1) PDE1A, PDE1B and PDE1C assays were performed as follows: the assays was performed in 60 μL samples containing a fixed amount of the PDE1 enzym1 (sufficient to convert 20-25% of the cyclic nucleotide substrate), a buffer (50 mM HEPES pH 7.6; 10 mM MgCl2; 0.02% Tween20), 0.1 mg/ml BSA, 15 nM tritium labelled cAMP and varying amounts of inhibitors. Reactions were initiated by addition of the cyclic nucleotide substrate, and reactions were allowed to proceed for 1 h at room temperature before being terminated through mixing with 20 μL (0.2 mg) yttrium silicate SPA beads (PerkinElmer). The beads were allowed to settle for 1 h in the dark before the plates were counted in a Wallac 1450 Microbeta counter. The measured signals were converted to activity relative to an uninhibited control (100%) and IC50 values were calculated using XlFit (model 205, IDBS).

Another assay addresses PDE1A (Homo sapiens, UniProt P54750). The assay is described as follows: PDE1 inhibition assay (SPA, tritium labelled cAMP), PDE1A. How it is done:
as §1

For the next assay, the target named is PDE1B (Homo sapiens, UniProt Q01064). The assay is described as follows: PDE1 inhibition assay (SPA, tritium labelled cAMP), PDE1B. How it is done: as §1

Each structure is given as a SMILES string.

PDE1A, sequence (P54750 whole entry): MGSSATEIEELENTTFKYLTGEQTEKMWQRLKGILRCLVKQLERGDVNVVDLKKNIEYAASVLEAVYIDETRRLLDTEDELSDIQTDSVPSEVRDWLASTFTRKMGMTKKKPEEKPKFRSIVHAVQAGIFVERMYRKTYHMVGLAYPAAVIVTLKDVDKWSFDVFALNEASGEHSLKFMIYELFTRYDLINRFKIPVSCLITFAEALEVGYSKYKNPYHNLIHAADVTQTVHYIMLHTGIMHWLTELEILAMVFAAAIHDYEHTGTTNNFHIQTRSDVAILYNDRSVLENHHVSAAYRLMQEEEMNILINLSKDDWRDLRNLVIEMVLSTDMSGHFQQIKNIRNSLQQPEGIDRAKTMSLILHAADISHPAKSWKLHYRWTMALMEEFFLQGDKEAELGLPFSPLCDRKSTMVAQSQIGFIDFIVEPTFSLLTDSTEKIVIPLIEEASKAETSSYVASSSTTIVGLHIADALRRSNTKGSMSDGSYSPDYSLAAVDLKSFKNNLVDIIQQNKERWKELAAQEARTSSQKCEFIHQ
PDE1B, sequence (Q01064 whole entry): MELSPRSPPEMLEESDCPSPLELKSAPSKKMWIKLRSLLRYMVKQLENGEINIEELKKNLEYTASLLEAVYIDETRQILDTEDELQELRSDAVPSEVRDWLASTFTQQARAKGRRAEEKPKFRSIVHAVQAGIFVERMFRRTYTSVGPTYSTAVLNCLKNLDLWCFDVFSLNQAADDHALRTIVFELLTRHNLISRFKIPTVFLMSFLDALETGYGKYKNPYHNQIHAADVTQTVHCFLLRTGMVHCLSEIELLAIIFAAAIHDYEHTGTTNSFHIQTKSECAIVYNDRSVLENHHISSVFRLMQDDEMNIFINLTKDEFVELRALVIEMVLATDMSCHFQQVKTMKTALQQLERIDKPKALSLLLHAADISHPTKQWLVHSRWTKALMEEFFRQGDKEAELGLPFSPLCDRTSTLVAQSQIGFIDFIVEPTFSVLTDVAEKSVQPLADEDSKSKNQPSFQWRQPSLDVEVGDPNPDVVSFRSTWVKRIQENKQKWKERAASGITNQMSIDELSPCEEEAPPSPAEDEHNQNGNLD
PDE1C, sequence (Q14123 whole entry): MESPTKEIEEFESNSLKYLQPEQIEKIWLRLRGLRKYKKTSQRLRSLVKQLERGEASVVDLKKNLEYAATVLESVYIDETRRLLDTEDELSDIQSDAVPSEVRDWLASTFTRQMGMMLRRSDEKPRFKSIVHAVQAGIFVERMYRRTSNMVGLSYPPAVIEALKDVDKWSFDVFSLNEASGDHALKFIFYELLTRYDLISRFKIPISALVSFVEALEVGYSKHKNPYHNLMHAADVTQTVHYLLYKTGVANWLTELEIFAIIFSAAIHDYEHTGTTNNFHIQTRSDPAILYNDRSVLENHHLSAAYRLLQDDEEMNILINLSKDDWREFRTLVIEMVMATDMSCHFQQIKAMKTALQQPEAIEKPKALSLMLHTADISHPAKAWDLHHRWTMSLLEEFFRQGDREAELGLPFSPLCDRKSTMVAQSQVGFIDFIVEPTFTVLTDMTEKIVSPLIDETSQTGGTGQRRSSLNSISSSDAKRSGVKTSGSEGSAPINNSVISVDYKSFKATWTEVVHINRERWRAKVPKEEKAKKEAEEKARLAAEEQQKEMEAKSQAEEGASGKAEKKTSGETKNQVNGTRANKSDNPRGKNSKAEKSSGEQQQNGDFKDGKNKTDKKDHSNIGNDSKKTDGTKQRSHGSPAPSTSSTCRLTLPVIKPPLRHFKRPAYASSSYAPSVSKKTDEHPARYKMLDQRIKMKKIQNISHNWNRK

Regarding `COc1ccc2c(N(C)C3CCOC3C)ncnc2c1F` (single isomer, unassigned) [18 Stereoisomer 1], the IC50 at PDE1C came out at 1100 nM; against PDE1A, 1730 nM; against PDE1B it was 510 nM.

As for `COc1ccc2c(N(C)C3(C)CCOC3C)ncnc2c1F` (single isomer, unassigned) [19 Stereoisomer 1], the IC50 against PDE1C worked out at 86 nM; against PDE1A, 229 nM; against PDE1B it was 32 nM.

Regarding `COc1ccc2c(NC3(C)CCOC3C)ncnc2c1F` (single isomer, unassigned) [17 Stereoisomer 4], the IC50 against PDE1C worked out at 440 nM; at PDE1A, 408 nM; against PDE1B it was 140 nM.

Take `COc1ccc2c(NC3(C)CCOC3C)ncnc2c1Cl` (single isomer, unassigned) [12 Stereoisomer 1]: the values for the IC50 against PDE1C, against PDE1A and against PDE1B were 130 nM, 853 nM and 200 nM, respectively.

In the case of `COc1ccc2c(NC3CCOC3C)ncnc2c1Cl` (single isomer, unassigned) [5 stereoisomer 2], the IC50 came out at 35 nM against PDE1C, 230 nM against PDE1A and 37 nM on PDE1B.

For the compound `COc1ccc2c(NC3CCOC3C)ncnc2c1Cl` (single isomer, unassigned) [5 stereoisomer 4], the values for the IC50 against PDE1C, against PDE1A and against PDE1B were 36 nM, 450 nM and 58 nM, respectively.

For the compound `COc1ccc2c(N(C)C3CCOC3C)ncnc2c1F` (single isomer, unassigned) [18 Stereoisomer 3], the IC50 is 87 nM against PDE1C, 200 nM at PDE1A and 47 nM at PDE1B.

Regarding `COc1ccc2c(N(C)C3(C)CCOC3C)ncnc2c1F` (single isomer, unassigned) [19 Stereoisomer 2], the IC50 against PDE1C worked out at 55 nM; at PDE1A it was 185 nM; at PDE1B, 32 nM.

Consider `COc1ccc2c(N(C)C3CCOC3C)ncnc2c1F` (single isomer, unassigned) [18 Stereoisomer 2], for which the values for the IC50 against PDE1C, at PDE1A and against PDE1B were 1400 nM, 2470 nM and 550 nM, respectively.

`COc1ccc2c(N(C)C3CCOC3)ncnc2c1Cl` (single isomer, unassigned) [6 stereoisomer 2]: the figures for the IC50 at PDE1C, at PDE1A and against PDE1B were 11 nM, 150 nM and 15 nM, respectively.

`COc1ccc2c(NC3CCOC3)ncnc2c1F` (single isomer, unassigned) [16 Stereoisomer 2]: the IC50 stood at 230 nM against PDE1C, 315 nM on PDE1A and 81 nM against PDE1B.

As for `COc1ccc2c(N(C)C3CCOC3C)ncnc2c1F` (single isomer, unassigned) [18 Stereoisomer 4], the results for the concentration for half-maximal inhibition (IC50) on PDE1C, on PDE1A and on PDE1B were 120 nM, 515 nM and 60 nM, respectively.

Take `COc1ccc2c(N(C)C3(C)CCOC3C)ncnc2c1Cl` (single isomer, unassigned) [13 Stereoisomer 1]: the half-maximal inhibitory concentration (IC50) against PDE1C stood at 200 nM; at PDE1A, 2550 nM; at PDE1B, 410 nM.

Regarding `COc1ccc2c(NC3CCOC3C)ncnc2c1F` (single isomer, unassigned) [3 Stereoisomer 1], the results for the IC50 against PDE1C, at PDE1A and against PDE1B were 1800 nM, 1900 nM and 650 nM, respectively.

With `COc1ccc2c(NC3CCOC3C)ncnc2c1Cl` (single isomer, unassigned) [5 stereoisomer 3], the IC50 on PDE1C amounted to 250 nM; at PDE1A it was 1500 nM; against PDE1B, 460 nM.

`COc1ccc2c(N(C)C3CCOC3C)ncnc2c1Cl` (single isomer, unassigned) [14 Stereoisomer 1]: the IC50 on PDE1C is 200 nM; on PDE1A it was 2640 nM; against PDE1B, 510 nM.

As to `COc1ccc2c(NC3CCOC3C)ncnc2c1F` (single isomer, unassigned) [3 Stereoisomer 2], the IC50 at PDE1C worked out at 260 nM; on PDE1A it was 420 nM; against PDE1B, 87 nM.

The compound `COc1ccc2c(N3CC[C@@H]4OCCC43)ncnc2c1Br` (single isomer, unassigned) [10 Stereoisomer 2] had an IC50 at PDE1C of 210 nM.
